We go through 3 compounds from patent publication US6355642B1, “Tetrahydrobenzindole compounds” (Meiji Seika Kaisha, Ltd., priority 1996, dated 2002).

Assay [1] addresses T1, human serotonin 5-HT7 receptor subtype (Homo sapiens, UniProt P34969).
T1 construct: expressed in transfected cells
In words: Binding affinity for 5-HT7 receptor ([3H]-5-CT displacement, membrane fraction of expressing cells). The protocol: Binding Affinity for 5-HT7 Receptor
Cultured cells capable of expressing human serotonin 5-HT7 receptor subtype were collected in an assay buffer (50 mM Tris-HCl, pH 7.4, containing […], 0.2 mM EDTA, 0.001% pargyline and 0.1% ascorbic acid) and homogenized with a Potter type homogenizer. Then the membrane fraction was subjected to 20 minutes of centrifugation at 39,000 g and at 4° C. The thus obtained pellet was re-suspended in 1 ml (per cells per one culture dish of 10 cm in diameter) of the assay buffer and homogenized again. This test was carried out on 1 nM in final concentration of [^3H]-5-CT (carboxamide triptamine) and 1 to 1, 000 nM of the compounds of Examples 1 to 90 represented by the general formula (I). A 100 μl of the membrane fraction was added to the reaction tube, final assay volume was adjusted to 500 μl, and the reaction was carried out by incubating the medium at 37° C. for 15 minutes. The incubation was terminated by quickly filtering the reaction system on a GF/B filter which was subsequently washed with 6 ml of cold 50 mM Tris-HCl (pH 7.4). Radioactivity was measured using Packard liquid scintillation counter. Non-specific binding was determined by 10 μM metergoline, and the specific binding was calculated based on the difference. IC50 value of each compound was determined by non-linear least square regression analysis, and dissociation constant Ki was calculated from the value.

A further assay addresses T2, 5-HT2 receptor (Rattus norvegicus, UniProt P14842).
T2 construct: the thus obtained precipitate was used as P2 fraction; from tissue; host or cells: rat cerebral cortex, P2 membrane fraction
In words: Binding affinity for 5-HT2 receptor ([3H]ketanserin displacement, rat cerebral cortex P2 fraction). The following applies: 1 nM [3H]ketanserin, Ki calculated from IC50. The protocol: Binding Affinity for 5-HT2 receptor
Rat cerebral cortex was homogenized in 10 volumes of 0.32 M sucrose solution and centrifuged for 10 minutes at 900×g, and the resulting supernatant fluid was again centrifuged for 20 minutes at 11,500×g. The thus obtained precipitate was re-suspended in […] Tris-HCl (pH 7.4) buffer and centrifuged for 20 minutes at 39,900×g, and the thus obtained precipitate was used as P2 fraction. The P2 fraction was incubated at 37° C. for 15 minutes in 50 mM Tris-HCl (pH 7.4) buffer containing 1 nM of [^3H] ketanserin and each of the compounds of the present invention and then filtered after the reaction using Whatman GF/B glass filter. The ^3H radioactivity on the filter was measured using a liquid scintillation counter. Non-specific binding was determined in the presence of 10 μM ketanserin, and the specific binding was calculated based on the difference. IC50 value of each compound was determined by non-linear least square regression analysis, and dissociation constant Ki was calculated from the value. The dissociation constant of 5-HT2 obtained by this test, dissociation constant of 5-HT7 obtained in Test Example 1 and their ratio are shown in the following table. As is evident from the results shown in the following table, compounds of the present invention show their affinity for 5-HT2 receptor too, but they bind more selectively to 5-HT7 receptor.

Setting [2] is: human 5-HT7 expressing cultured cells, 1 nM [3H]-5-CT, Ki calculated from IC50, read-out: Ki (nM) of 5-HT7.

The term Ki denotes the equilibrium dissociation constant of an inhibitor or competing ligand from its target.

The structures appear in SMILES notation. Like-named read-outs stand apart in the source and are kept apart here.

T1 sequence (P34969 whole entry): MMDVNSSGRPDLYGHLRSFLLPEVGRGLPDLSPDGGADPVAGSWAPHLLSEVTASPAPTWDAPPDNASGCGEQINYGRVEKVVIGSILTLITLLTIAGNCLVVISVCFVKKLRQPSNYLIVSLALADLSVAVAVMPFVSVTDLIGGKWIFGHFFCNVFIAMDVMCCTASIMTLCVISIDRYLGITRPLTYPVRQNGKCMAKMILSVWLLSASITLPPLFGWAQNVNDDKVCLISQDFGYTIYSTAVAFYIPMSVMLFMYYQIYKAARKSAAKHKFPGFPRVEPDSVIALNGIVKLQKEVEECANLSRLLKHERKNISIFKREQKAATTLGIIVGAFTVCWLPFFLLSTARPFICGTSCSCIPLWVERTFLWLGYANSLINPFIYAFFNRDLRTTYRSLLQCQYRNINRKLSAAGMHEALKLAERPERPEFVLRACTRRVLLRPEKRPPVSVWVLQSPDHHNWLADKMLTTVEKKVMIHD
T2 sequence (P14842 whole entry): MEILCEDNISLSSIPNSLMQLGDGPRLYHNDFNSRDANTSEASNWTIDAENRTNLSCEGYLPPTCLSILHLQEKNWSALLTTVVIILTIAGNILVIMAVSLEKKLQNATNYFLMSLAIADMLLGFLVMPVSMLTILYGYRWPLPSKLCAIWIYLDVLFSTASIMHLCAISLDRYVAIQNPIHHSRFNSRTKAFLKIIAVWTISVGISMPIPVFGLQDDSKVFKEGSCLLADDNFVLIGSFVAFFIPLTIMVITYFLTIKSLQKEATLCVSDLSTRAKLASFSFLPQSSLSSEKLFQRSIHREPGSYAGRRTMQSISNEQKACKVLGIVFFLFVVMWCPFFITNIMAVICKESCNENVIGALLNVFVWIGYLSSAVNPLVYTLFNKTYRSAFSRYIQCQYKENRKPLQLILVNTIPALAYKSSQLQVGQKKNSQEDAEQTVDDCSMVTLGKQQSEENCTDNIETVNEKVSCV

Regarding `COc1ccccc1N1CCN(CCCCC23CCCc4cccc(c42)NC3=O)CC1` (stereo not shown) [Compound 5, 2a-[4-{4-(2-Methoxyphenyl)piperazinyl}butyl]-2a,3,4,5-tetrahydrobenz[cd]indole-2(1H)-one], the inhibition constant Ki in assay [1] (setting [2]) was 8.9 nM; on 5-HT2 receptor, 61 nM.

As for `COC1(c2ccccc2)CCN(CCCCC23CCCc4cccc(c42)NC3=O)CC1` (stereo not shown) [Compound 56, 2a-[4-(4-Methoxy-4-phenyl-piperidyl)butyl]-2a,3,4,5-tetrahydrobenz[cd]indole-2(1H)-one], the Ki in assay [1] was 27 nM; on 5-HT2 receptor, 414 nM.

Turning to `O=C1Nc2cccc3c2C1(CCCCN1CCN(c2ccccn2)CC1)CCC3` (stereo not shown) [Compound 87, 2a-[4-{4-(^2-Pyridyl)piperazinyl}butyl]-2a,3,4,5-tetrahydrobenz[cd]indole-2(1H)-one], the results for the Ki (in assay [1] (setting [2]); on 5-HT2 receptor) were 11 nM and 120 nM, respectively. The 5-HT2/5-HT7 in assay [1] (ratio of dissociation constants Ki 5-HT2 / Ki 5-HT7) is recorded as 11.0.
